Measurements taken from article PMC6976883, “Detection in two hospitals of transferable ceftazidime-avibactam resistance in Klebsiella pneumoniae due to a novel VEB β-lactamase variant with a Lys234Arg substitution, Greece, 2019” (Eurosurveillance, 2020).

Molecular target: T1, VEB-1 (Escherichia coli, UniProt Q7BVU7)
T1 construct: gene blaVEB; natural plasmid-encoded enzyme, no tags; crude cell extracts of E. coli K12 26R793 transconjugants TrcS-2865 (VEB-1) and TrcE-1037 (VEB-25, GenBank MN862699), which also contain OXA-10 and TEM-1
Test: spectrophotometric inhibition of ceftazidime hydrolysis
Format: biochemical

**Q.** Which IC50 does the source give for `NC(=O)[C@@H]1CC[C@@H]2CN1C(=O)N2OS(=O)(=O)O` [avibactam] here?
**A.** The IC50 was 0.1 nM.
